These results are taken from patent US7908091B2, “Methods of predicting and monitoring tyrosine kinase inhibitor therapy” (Prometheus Laboratories Inc., priority 2006, dated 2011).

The conditions of series [1]: human, in vivo; cited from earlier work.
Series [2] relates to hormone refractory prostate cancer. The settings on record: in vivo; cited from earlier work.
Series [3] concerns prostate cancer, renal cell carcinoma, or multiple myeloma. Particulars: in vivo; cited from earlier work.
Series [4] relates to refractory acute myeloid leukemia. The settings on record: twice weekly administration; cited from earlier work.
In another series the test system is advanced kidney cancer. The settings on record: after a 12-week treatment period, compared to the placebo group; cited from earlier work.
Series [5] has as its system advanced stage III or IV non-small cell lung cancer. Particulars: progressive disease after standard chemotherapies; cited from earlier work.
In series [6] the test system is EGF-dependent cell proliferation. The settings on record: cited from earlier work.
The next series concerns renal cell carcinoma. Particulars: human, in vivo; cited from earlier work.
In series [7] the test system is refractory ovarian cancer. Particulars: in vivo; cited from earlier work.
For another series, the system named is MDA-MB-453. Kind of series: gefitinib sensitivity (IC50) of cancer cell line.
A further series deals with Akt. Particulars: gefitinib concentration of 10 μM, data from FIG. 3 of Moasser et al., cited from earlier work.
For the next series, the system named is DU145. Kind of series: gefitinib sensitivity (IC50) of cancer cell line.
The subject of another series is SkOv3. Kind of series: gefitinib sensitivity (IC50) of cancer cell line.
Series [8] concerns non-small cell lung cancer. Particulars: patients with refractory non-small cell lung cancer in whom standard therapy failed; cited from earlier work.
The subject of a further series is MDA-MB-361. Kind of series: gefitinib sensitivity (IC50) of cancer cell line.
In a further series the test system is BT474. The series can be described thus: gefitinib sensitivity (IC50) of cancer cell line.
Another series has as its system A431. Kind of series: gefitinib sensitivity (IC50) of cancer cell line.
Another series relates to SkBr3. Kind of series: gefitinib sensitivity (IC50) of cancer cell line.

The structures appear in SMILES notation. Like-named read-outs stand apart in the source and are kept apart here.

Turning to `Cc1oncc1C(=O)Nc1ccc(C(F)(F)F)cc1` [leflunomide], in series [1], the “most common / toxic side-effects” value was “asthenia, nausea, anorexia, and anemia”. For the same compound, in series [2], the “patients with a decrease in prostate specific antigen of greater than 50%” value was “about 7%” and the “patients with partial responses” value is on record as “less than 5%”.

As to `Cc1cc(C)c(/C=C2\C(=O)Nc3ccccc32)[nH]1` [semaxinib], in series [1], the “most common / toxic side-effects” value was “headache, nausea, vomiting, asthenia, pain at the infusion site, phlebitis, change in voice, and fever”. Also, the objective response rates result in [3] is “minimal objective response rates”. For the same compound, in [4], the complete responses is reported as 1 and the partial responses was 7.

In the case of `CNC(=O)c1cc(Oc2ccc(NC(=O)Nc3ccc(Cl)c(C(F)(F)F)c3)cc2)ccn1` [sorafenib], the “most common / toxic side-effects” value in series [1] is “skin reactions such as hand-foot syndrome and rash, diarrhea, fatigue, weight loss, and hypertension”. Further, the “patients whose disease did not progress” value with advanced kidney cancer is given as “statistically higher percentage of patients whose disease did not progress”.

With `C#Cc1cccc(Nc2ncnc3cc(OCCOC)c(OCCOC)cc23)c1` [erlotinib], in series [1], the “most common / toxic side-effects” value was “an acneiform skin rash and diarrhea”. Further, in [5], the median survival is on record as 8.4 months and the response rate is listed as 12%. In addition, the “inhibits EGF-dependent cell proliferation” value in series [6] is on record as “nanomolar concentrations”.

Turning to `Clc1ccc(Nc2nnc(Cc3ccncc3)c3ccccc23)cc1` [vatalanib], in the series on renal cell carcinoma, the “patients with minor responses” value was 15% and the “patients with partial responses” value is recorded as 5%.

As to `CS(=O)(=O)CCNCc1ccc(-c2ccc3ncnc(Nc4ccc(OCc5cccc(F)c5)c(Cl)c4)c3c2)o1` [lapatinib], the “most common / toxic side-effects” value in series [1] was “diarrhea and skin rash”.

For `C=CC(=O)Nc1cc2c(Nc3ccc(F)c(Cl)c3)ncnc2cc1OCCCN1CCOCC1` [canertinib], the antitumor activity entry in series [7] is reported as “minimal antitumor activity”.

As to `COc1cc2ncnc(Nc3ccc(F)c(Cl)c3)c2cc1OCCCN1CCOCC1` [gefitinib], the “CATAG (gefitinib-sensitive)” value in the series on MDA-MB-453, in the series on DU145, in the series on SkOv3, in the series with MDA-MB-361, with BT474 and in the series with A431 was 1 (An IC50 <9 μM was considered gefitinib-sensitive (“CATAG” = 1)) each time. For the same compound, the “CATAG (gefitinib-sensitive)” value in the series on SkBr3 is on record as 1 (An IC50 <9 μM was considered gefitinib-sensitive (“CATAG” = 1)). In addition, the “Akt (level of Akt activity)” value in the series on Akt (A431) is given as 2; in the series with Akt (A549) it was 85; with Akt (BT474) it was 10; with Akt (Colo205), 105; in the series on Akt (DU145), 35; in the series with Akt (DU4475), 105. Further, the “Akt (level of Akt activity)” value in the series on Akt (MCF-7) was 70; in the series on Akt (MDA-MB-361) it was 20; in the series with Akt (MDA-MB-453) it was 40; with Akt (MDA-MB-468), 90; with Akt (MDA-MIB-231) it was 70; in the series with Akt (PC3), 55. Further, the “Akt (level of Akt activity)” value was 2 in the series on Akt (SkBr3); 40 in the series on Akt (SkOv3); 90 with Akt (T24); 85 in the series on Akt (T47D); 85 in the series on Akt (ZR75). The response rate result in series [8] is on record as “about 10%”.
